Source: ChEMBL document CHEMBL1201862, “PubChem BioAssay data set” (2004)
Activity calls are given as the source filed them.

Key:
[1] = target: Luciferin 4-monooxygenase (Photinus pyralis, UniProt P08659); test: firefly luciferase enzyme inhibitors, dose response, biochemical, luminescence (AID 1891)
[2] = Luminescence Cell-Based Dose Confirmation HTS to Identify Inhibitors of Platelet Dense Granule Release. [Related pubchem assays: 1663 (Primary HTS), 1678 (Summary of Project)]; format: functional
[3] = HepG2 cell cytotoxicity, dose response, cytotoxicity control, ATP luminescence, cherry-pick, activator set 2 (AID 1053143); format: functional, cell-based
[4] = inhibitors of intracellular T. cruzi replication, confirmation, NIH3T3 host cells, beta-gal luminescence (AID 2044); format: functional, cell-based;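 note: intracellular parasites grown in NIH/3T3 mouse fibroblasts as host cells; luminescent beta-galactosidase reporter signal from transgenic T. cruzi replicating inside host cells; inhibitors lower the luminescence signal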
[5] = cytotoxicity toward NIH3T3 fibroblasts, dose response, counter-screen, cell-based, ATP luminescence, mouse fibroblasts (AID 2010); format: functional;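 note: cells exposed to compound for about 90 hours before reading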
[6] = system: HEK293; test: NOD1 signaling inhibitors, primary screen, cell-based, luminescence, uHTS (AID 1578); format: functional; conditions: Homo sapiens
[7] = system: HEK293; test: cells; format: functional, cell-based; conditions: Homo sapiens
[8] = system: HEK293; test: cells; format: functional, cell-based; conditions: Homo sapiens; remark: listed apart in the source
[9] = system: HEK293; test: NOD2 signaling inhibitors in MDP-stimulated cells, cell-based, uHTS, luminescence (AID 2001); format: functional; conditions: Homo sapiens
[10] = Shn3 3'UTR reporter inhibitors, dose response, cell-based, Clone20 osteoblasts, firefly luciferase, cherry-picked (AID 624132); format: functional;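 note: firefly luciferase luminescence from reporter carrying the Shn3 3'UTR in osteoblasts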
[11] = HepG2 cell cytotoxicity, dose response, cytotoxicity control for Shn3 inhibitor project, CellTiter-Glo, cherry-picked (AID 624134); format: functional, cell-based
[12] = control 3'UTR Renilla luciferase suppression, dose response, counter-screen for Shn3 inhibitor project, cell-based, Clone20-Shn3RL, cherry-picked (AID 624133); format: functional
[13] = target: T1, Galanin receptor type 3 (Homo sapiens, UniProt O60755); test: Fluorescence-based cell-based primary high throughput dose response assay to identify antagonists of the Galanin Receptor 3 (GalR3).; format: functional
T1 sequence (O60755 whole entry): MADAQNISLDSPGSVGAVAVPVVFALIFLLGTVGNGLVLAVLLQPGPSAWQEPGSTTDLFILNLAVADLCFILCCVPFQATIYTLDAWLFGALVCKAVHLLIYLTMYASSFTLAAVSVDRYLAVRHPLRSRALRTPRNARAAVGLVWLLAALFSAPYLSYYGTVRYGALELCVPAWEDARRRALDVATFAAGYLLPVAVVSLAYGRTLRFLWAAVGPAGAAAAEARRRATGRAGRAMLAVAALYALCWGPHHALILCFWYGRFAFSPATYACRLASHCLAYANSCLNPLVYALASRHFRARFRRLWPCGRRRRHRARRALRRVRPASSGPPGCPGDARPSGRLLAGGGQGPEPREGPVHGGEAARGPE

[14] = cells; format: functional, cell-based; conditions: HEK-CNG
[15] = target: COUP transcription factor 2 (Homo sapiens, UniProt P24468); test: Luminescence-based cell-based high throughput dose response assay to identify inhibitors of COUP-TFII (NR2F2).; format: functional;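 note: HEK293 cells transiently cotransfected with COUP-TFII expression vector and reporter; luciferase reporter luminescence driven by COUP-TFII from the pX2-168 reporter plasmid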
[16] = target: Kallikrein-7 (Homo sapiens, UniProt P49862); test: Fluorescence Intensity-based biochemical primary high throughput dose response assay to identify activators of kallikrein-7 (K7) zymogen.
[17] = cells

Chain of Kallikrein-7 (P49862 whole entry): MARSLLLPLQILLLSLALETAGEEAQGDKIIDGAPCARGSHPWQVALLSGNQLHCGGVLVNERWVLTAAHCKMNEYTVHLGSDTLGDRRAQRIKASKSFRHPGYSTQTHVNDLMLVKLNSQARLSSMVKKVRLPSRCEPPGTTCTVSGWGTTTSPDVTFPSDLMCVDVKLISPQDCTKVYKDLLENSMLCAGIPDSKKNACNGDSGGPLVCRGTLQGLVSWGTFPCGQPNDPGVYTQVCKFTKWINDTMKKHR
Chain of Luciferin 4-monooxygenase (P08659 whole entry): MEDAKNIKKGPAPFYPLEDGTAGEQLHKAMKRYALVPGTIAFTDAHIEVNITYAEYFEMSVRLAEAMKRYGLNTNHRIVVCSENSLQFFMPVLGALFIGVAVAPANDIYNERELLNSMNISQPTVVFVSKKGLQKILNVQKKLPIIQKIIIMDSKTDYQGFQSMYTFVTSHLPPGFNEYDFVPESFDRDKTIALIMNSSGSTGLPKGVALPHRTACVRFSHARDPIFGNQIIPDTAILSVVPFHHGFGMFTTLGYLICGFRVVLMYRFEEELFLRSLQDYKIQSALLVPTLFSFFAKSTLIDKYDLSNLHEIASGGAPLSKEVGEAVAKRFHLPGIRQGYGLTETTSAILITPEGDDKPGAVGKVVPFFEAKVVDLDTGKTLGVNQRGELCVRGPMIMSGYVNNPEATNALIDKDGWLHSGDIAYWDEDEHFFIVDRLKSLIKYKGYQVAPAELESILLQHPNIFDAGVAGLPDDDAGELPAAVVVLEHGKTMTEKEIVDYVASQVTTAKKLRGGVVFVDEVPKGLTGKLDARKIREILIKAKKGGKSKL
Chain of COUP transcription factor 2 (P24468 whole entry): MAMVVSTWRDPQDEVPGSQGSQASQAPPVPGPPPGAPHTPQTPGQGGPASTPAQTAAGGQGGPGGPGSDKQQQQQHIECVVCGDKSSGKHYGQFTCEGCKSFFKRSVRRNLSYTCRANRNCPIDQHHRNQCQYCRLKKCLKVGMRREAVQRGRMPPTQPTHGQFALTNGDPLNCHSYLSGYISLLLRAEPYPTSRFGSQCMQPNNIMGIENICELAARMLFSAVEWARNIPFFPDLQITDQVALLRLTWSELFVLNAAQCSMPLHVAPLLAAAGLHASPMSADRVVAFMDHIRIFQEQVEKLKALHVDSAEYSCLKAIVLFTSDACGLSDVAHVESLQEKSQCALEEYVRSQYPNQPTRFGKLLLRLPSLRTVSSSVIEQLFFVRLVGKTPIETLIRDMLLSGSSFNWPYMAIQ

Cc1cc(NC(=O)c2cccc(F)c2)ncc1NC(=O)c1ccco1
EC50 [1]: 7.28 µM (active)
EC50 [2]: 7.21 µM (active)
AC50 [3]: 26 µM (active)

CC1CCC(C(C)C)C(OC(=O)COC(=O)c2cc(O)ccc2N)C1 (centres undefined)
EC50 [4]: 4.92 µM (active)
EC50 [5]: > 60 µM (not active)
AC50 [3]: 26 µM (active)

O=C(Cc1ccc(Cl)cc1Cl)Nc1ccncc1Cl
EC50 [6]: 3.7 µM (active)
IC50 [7]: 5.77 µM (active)
IC50 [8]: > 20 µM (inactive)
IC50 [9]: 6.02 µM (active)
AC50 [10]: 1.63 µM (active)
AC50 [11]: 2.91 µM (active)
AC50 [12]: 3.91 µM (active)
IC50 [13]: 4.44 µM (active)
EC50 [14]: > 29.9 µM (inactive)
IC50 [15]: 11.6 µM (inactive)

CCCc1cc(NCCN(C)C)n2c(nc3ccccc32)c1C#N
EC50 [16]: > 69.5 µM (inactive)

Sc1nc2ccccc2n2c(S)nnc12
IC50 [17]: > 138 µM (inactive)

Cc1ccc2nc(NC(=O)c3ccc4ncsc4c3)sc2c1
EC50 [16]: 20.8 µM (inactive)
